According to the Kinase Knowledgebase extract (Sharma et al. 2016):
Values joined by “and” are separate entries in the source; they are usually repeats but may differ in a detail not shown here. Equal entries are not always repeated.

How the values were obtained:
MAPK14 (human) [1] = biological target: MAPK14 (human) (UniProt Q16539); assay: Inhibition of MAPK14 Kinase Activity
MAPK14 (human) [2] = biological target: MAPK14 (human) (UniProt Q16539); assay: Assessment of Phosphorylation of MAPK14 in HeLa Cell Line

Sequence of MAPK14 (human) (Q16539 whole entry, looked up): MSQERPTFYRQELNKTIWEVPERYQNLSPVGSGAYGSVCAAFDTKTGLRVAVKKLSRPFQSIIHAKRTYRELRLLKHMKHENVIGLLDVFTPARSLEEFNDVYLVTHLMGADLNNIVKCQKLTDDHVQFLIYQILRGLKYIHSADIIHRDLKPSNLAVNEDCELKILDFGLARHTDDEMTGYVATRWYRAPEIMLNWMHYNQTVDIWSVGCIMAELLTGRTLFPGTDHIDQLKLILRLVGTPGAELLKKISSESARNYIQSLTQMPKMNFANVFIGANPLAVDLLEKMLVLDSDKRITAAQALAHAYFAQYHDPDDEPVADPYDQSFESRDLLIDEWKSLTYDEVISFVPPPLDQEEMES

| IC50 (MAPK14 (human) [1]) [nM] | IC50 (MAPK14 (human) [2]) | SMILES |
| --- | --- | --- |
| < 50 | < 50 nM | COCC[C@H](C)Nc1nc2ccc(-c3nc(C4CC4)[nH]c3-c3ccc(F)cc3F)nc2o1 |
| < 50 | < 50 nM | COCC[C@@H](C)Nc1nc2ccc(-c3nc(C(C)(C)CO)[nH]c3-c3ccc(F)cc3F)nc2o1 |
| < 50 | 1.6 nM and < 50 nM | COCC[C@H](C)Nc1nc2ccc(-c3nc(C(C)(C)CO)[nH]c3-c3ccc(F)cc3F)nc2o1 |
| < 50 | < 50 nM | COCC[C@H](C)Nc1nc2ccc(-c3nc(C4(C)COC4)[nH]c3-c3ccc(F)cc3F)nc2o1 |
| < 50 | < 50 nM | CCOC[C@H](C)Nc1nc2ccc(-c3nc(C4(CO)CC4)[nH]c3-c3ccc(F)cc3F)nc2o1 |
